Measurements taken from PubChem BioAssay AID248 (DTP/NCI, 2004).
Inconclusive results and toxic doses are left out. Rule as the data show it: active = T/C of 150% or more; inactive = T/C below 125%.

Tested on: L1210 leukemia ip in BDF1 mice, survival T/C
Assay: NCI In Vivo Anticancer Drug Screen. Data for tumor model L1210 Leukemia (intraperitoneal) in B6D2F1 (BDF1) mice
Details: endpoint: mean survival time, higher = longer survival
Outline: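 Value reflects the ratio of survival in compound-treated mice to survival in vehicle-treated controls, with both groups carrying the same transplanted tumor.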

[1] = dose: 100.0 mg/kg/injection, schedule: Q01DX001 (ip), vehicle: saline
[2] = dose: 200.0 mg/kg/injection, schedule: Q01DX001 (ip), vehicle: saline
[3] = dose: 100.0 mg/kg/injection, schedule: Q01DX009 (ip), vehicle: saline
[4] = dose: 100.0 mg/kg/injection, schedule: Q04DX003 (ip), vehicle: saline
[5] = dose: 100.0 mg/kg/injection, schedule: Q04DX003 (ip), vehicle: saline with Tween-80
[6] = dose: 200.0 mg/kg/injection, schedule: Q04DX003 (ip), vehicle: saline with Tween-80
[7] = dose: 400.0 mg/kg/injection, schedule: Q04DX003 (ip), vehicle: saline with Tween-80
[8] = dose: 200.0 mg/kg/injection, schedule: Q04DX003 (ip), vehicle: saline
[9] = dose: 400.0 mg/kg/injection, schedule: Q04DX003 (ip), vehicle: saline
[10] = dose: 100.0 mg/kg/injection, schedule: Q04DX003 (ip), vehicle: Klucel (hydroxypropylcellulose) (HPC)
[11] = dose: 200.0 mg/kg/injection, schedule: Q04DX003 (ip), vehicle: Klucel (hydroxypropylcellulose) (HPC)
[12] = dose: 400.0 mg/kg/injection, schedule: Q04DX003 (ip), vehicle: Klucel (hydroxypropylcellulose) (HPC)

Measured: T/C

NCCCCC(N)C(=O)NCCCCCCNCCCCCCNC(=O)C(N)CCCCN (configuration not stated)
inactive: dose: 10.0 mg/kg/injection, schedule: Q01DX Z (ip), vehicle: saline 95 % of control | dose: 30.0 mg/kg/injection, schedule: Q01DX Z (ip), vehicle: saline 95 % of control | [1] 90 % of control | dose: 100.0 mg/kg/injection, schedule: Q01DX Z (ip), vehicle: saline 95 % of control | [2] 103 % of control

O=C(O)CCN(CCC(=O)O)CCC(=O)O
inactive: dose: 44.0 mg/kg/injection, schedule: Q01DX009 (ip), vehicle: alkali diluted with saline 97 % of control | dose: 66.0 mg/kg/injection, schedule: Q01DX009 (ip), vehicle: saline 96 % of control | dose: 67.0 mg/kg/injection, schedule: Q01DX009 (ip), vehicle: alkali diluted with saline 98 % of control | dose: 100.0 mg/kg/injection, schedule: Q01DX009 (ip), vehicle: alkali diluted with saline 101 % of control | [3] 94 % of control | dose: 100.0 mg/kg/injection, schedule: Q04DX003 (ip), vehicle: alkali diluted with saline 100 % of control | dose: 150.0 mg/kg/injection, schedule: Q01DX009 (ip), vehicle: alkali diluted with saline 103 % of control | dose: 150.0 mg/kg/injection, schedule: Q01DX009 (ip), vehicle: saline 102 % of control | dose: 200.0 mg/kg/injection, schedule: Q01DX009 (ip), vehicle: saline with Tween-80 101 % of control | dose: 200.0 mg/kg/injection, schedule: Q04DX003 (ip), vehicle: alkali diluted with saline 108 % of control | dose: 400.0 mg/kg/injection, schedule: Q01DX009 (ip), vehicle: saline with Tween-80 100 % of control | dose: 400.0 mg/kg/injection, schedule: Q04DX003 (ip), vehicle: alkali diluted with saline 97 % of control

O=C(C1CC1)C1OC1c1ccccc1 (configuration not stated)
inactive: dose: 100.0 mg/kg/injection, schedule: Q01DX001 (ip), vehicle: Klucel (hydroxypropylcellulose) (HPC) 96 % of control | dose: 200.0 mg/kg/injection, schedule: Q01DX001 (ip), vehicle: Klucel (hydroxypropylcellulose) (HPC) 100 % of control | dose: 400.0 mg/kg/injection, schedule: Q01DX001 (ip), vehicle: Klucel (hydroxypropylcellulose) (HPC) 94 % of control

Cc1cc[n+](Cc2ccc([N+](=O)[O-])cc2)cc1
inactive: dose: 25.0 mg/kg/injection, schedule: Q01DX009 (ip), vehicle: saline 94 % of control | dose: 50.0 mg/kg/injection, schedule: Q01DX009 (ip), vehicle: saline 89 % of control | dose: 50.0 mg/kg/injection, schedule: Q04DX003 (ip), vehicle: saline 101 % of control | [1] 96 % of control | [3] 93 % of control | [4] 98 % of control | [2] 100 % of control

CCO/C=C1\SC(=S)N(Cc2ccccc2)C1=O
inactive: [5] 94 % of control | [6] 99 % of control | [7] 102 % of control

CCCCN(CCCC)CC(O)c1cc(OC)c2cc(Cl)cc(Cl)c2n1 (configuration not stated)
inactive: [5] 98 % of control | [6] 91 % of control | [7] 94 % of control

O=C1c2ccccc2C(=O)c2c(O)c(N3CCCCC3)cc(O)c21
inactive: [3] 91 % of control | [4] 88 % of control | dose: 200.0 mg/kg/injection, schedule: Q01DX009 (ip), vehicle: saline 89 % of control | [8] 88 % of control | dose: 400.0 mg/kg/injection, schedule: Q01DX009 (ip), vehicle: saline 94 % of control | [9] 92 % of control

O=C1c2ccccc2C(=O)c2c(O)c(Cc3ccccc3)cc(O)c21
inactive: [4] 105 % of control | [8] 97 % of control | [9] 97 % of control

Cc1ccccc1[As](c1ccccc1C)c1ccccc1C
inactive: [5] 87 % of control

CC(=O)C1(O)CCC2C3CCC4=CC(=O)CCC4(C)C3CC(=O)C21C (configuration not stated)
inactive: dose: 75.0 mg/kg/injection, schedule: Q01DX001 (ip), vehicle: other 95 % of control | dose: 150.0 mg/kg/injection, schedule: Q01DX001 (ip), vehicle: other 93 % of control | dose: 300.0 mg/kg/injection, schedule: Q01DX001 (ip), vehicle: other 95 % of control

c1cc[c]([Pb]([c]2ccccc2)([c]2ccccc2)[n]2cnc3cncnc32)cc1
inactive: dose: 5.0 mg/kg/injection, schedule: Q01DX001 (ip), vehicle: other 103 % of control | dose: 10.0 mg/kg/injection, schedule: Q01DX001 (ip), vehicle: other 95 % of control

O=C(CN1C(=O)CCC1=O)Oc1ccc([N+](=O)[O-])cc1
inactive: [1] 91 % of control | [2] 98 % of control | dose: 400.0 mg/kg/injection, schedule: Q01DX001 (ip), vehicle: saline 102 % of control

NC(CO)C(O)c1ccc([N+](=O)[O-])cc1 (configuration not stated)
inactive: dose: 100.0 mg/kg/injection, schedule: Q01DX009 (ip), vehicle: Klucel (hydroxypropylcellulose) (HPC) 101 % of control | [10] 91 % of control | dose: 200.0 mg/kg/injection, schedule: Q01DX009 (ip), vehicle: Klucel (hydroxypropylcellulose) (HPC) 101 % of control | [11] 100 % of control | dose: 400.0 mg/kg/injection, schedule: Q01DX009 (ip), vehicle: Klucel (hydroxypropylcellulose) (HPC) 101 % of control | [12] 98 % of control

CN1CCCC(CC2c3ccccc3Sc3ccccc32)C1 (configuration not stated)
inactive: dose: 2.0 mg/kg/injection, schedule: Q01DX015 (ip), vehicle: carboxymethylcellulose (CMC) 108 % of control | dose: 4.0 mg/kg/injection, schedule: Q01DX015 (ip), vehicle: carboxymethylcellulose (CMC) 98 % of control | dose: 8.0 mg/kg/injection, schedule: Q01DX015 (ip), vehicle: carboxymethylcellulose (CMC) 97 % of control | dose: 16.0 mg/kg/injection, schedule: Q01DX015 (ip), vehicle: carboxymethylcellulose (CMC) 91 % of control | dose: 32.0 mg/kg/injection, schedule: Q01DX015 (ip), vehicle: carboxymethylcellulose (CMC) 92 % of control

O=c1[nH]c(=O)c2nc[nH]c(=O)c2[nH]1
inactive: dose: 75.0 mg/kg/injection, schedule: Q01DX009 (ip), vehicle: Klucel (hydroxypropylcellulose) (HPC) 98 % of control | [10] 118 % of control | dose: 150.0 mg/kg/injection, schedule: Q01DX009 (ip), vehicle: Klucel (hydroxypropylcellulose) (HPC) 97 % of control | [11] 94 % of control | [12] 100 % of control
